Test results reported in patent US20230203081A1, “LINCOSAMIDE ANTIBIOTICS AND USES THEREOF” (President and Fellows of Harvard College, priority 2020, published 2023).
≈ marks a conversion by molar mass, not a printed value. Where two headings read alike, the source gives them in different places.

How the values were obtained:
Assay type in all cases: cell-based
E. coli ΔTolC = assay: microbe, parasite or virus in culture; settings: Escherichia coli
Procedure: (§1) Minimum inhibitory concentrations (MICs) were determined by broth microdilution method or agar dilution method following the Clinical and Laboratory Standards Institute guidelines. Standard bacterial strains were obtained from American Type Culture Collection (ATCC). Other bacterial strains were obtained from hospitals and commercial sources, so noted in Table 11. […] Specialized procedures were employed for streptococcal and anaerobic strains. All other bacterial strains were sub-cultured on blood agar plates (tryptic soy agar with 5% sheep blood, Hardy Diagnostics) and incubated overnight at 35° C. […] Suspensions were further diluted to obtain a final inoculum of 5×10^5 CFU/mL for broth microdilution experiments.

[1] = tested on: broad panel of different clinical isolates; assay: microbe, parasite or virus in culture
Procedure: as §1

E. coli LptD = assay: MIC (broth microdilution or agar dilution, CLSI); settings: Escherichia coli, read-out: MIC
Procedure: as §1

S. aureus ATCC 29213 = assay: MIC (broth microdilution or agar dilution, CLSI); settings: Staphylococcus aureus, read-out: MIC
Procedure: as §1

E. coli ATCC 25922 = assay: MIC (broth microdilution or agar dilution, CLSI); settings: Escherichia coli, ATCC25922, read-out: MIC
Procedure: as §1

S. pneumoniae ATCC 49619 = assay: MIC (broth microdilution or agar dilution, CLSI); settings: Streptococcus pneumoniae, read-out: MIC
Procedure: as §1

E. faecalis ATCC 29212 = assay: MIC (broth microdilution or agar dilution, CLSI); settings: Enterococcus faecalis, read-out: MIC
Procedure: as §1

S. pyogenes ATCC 19615 = assay: MIC (broth microdilution or agar dilution, CLSI); settings: Streptococcus pyogenes, read-out: MIC
Procedure: as §1

K. oxytoca Clinical = assay: MIC (broth microdilution or agar dilution, CLSI); settings: Klebsiella oxytoca, read-out: MIC
Procedure: as §1

S. aureus MMX 3035 cErmA = assay: MIC (broth microdilution or agar dilution, CLSI); settings: Staphylococcus aureus, MMX3035CERMA; S. aureus HAV#031, MMX 3035; cErmA; read-out: MIC
Procedure: as §1

S. aureus cErmA = assay: MIC (broth microdilution or agar dilution, CLSI); settings: Staphylococcus aureus; S. aureus cErmA; read-out: MIC
Procedure: (§2) Minimum inhibitory concentrations (MICs) were determined by broth microdilution method or agar dilution method following the Clinical and Laboratory Standards Institute guidelines. Standard bacterial strains were obtained from American Type Culture Collection (ATCC). Other bacterial strains were obtained from hospitals and commercial sources, so noted in Table 11. Before the start of the MIC experiment, standard and test compound stock solutions were prepared in dimethyl sulfoxide (DMSO, Aldrich D2650) at a stock concentration of 5,120 μg/mL. The compound concentration range typically employed for each experiment was 128-0.06 μg/mL (2.5% final DMSO concentration). Clindamycin was used as a comparator in all experiments and each experiment was performed in triplicate. Specialized procedures were employed for streptococcal and anaerobic strains. All other bacterial strains were sub-cultured on blood agar plates (tryptic soy agar with 5% sheep blood, Hardy Diagnostics) and incubated overnight at 35° C. Organisms were suspended in cation-adjusted Mueller-Hinton broth (CaMHB, BD 212322) and optical density was adjusted to 0.5 McFarland standard. Suspensions were further diluted to obtain a final inoculum of 5×10^5 CFU/mL for broth microdilution experiments.

P. aeruginosa ATCC 27853 = assay: MIC (broth microdilution or agar dilution, CLSI); settings: Pseudomonas aeruginosa, ATCC27853; P. aeruginosa ATCC 27853; read-out: MIC
Procedure: as §2

E. faecium Clinical VRE = assay: MIC (broth microdilution or agar dilution, CLSI); settings: Enterococcus faecium; E. faecium Clinical VRE; read-out: MIC
Procedure: as §2

A. baumannii ATCC 19606 = assay: MIC (broth microdilution or agar dilution, CLSI); settings: Acinetobacter baumannii, ATCC19606; A. baumannii ATCC 19606; read-out: MIC
Procedure: as §1

[2] = tested on: S. aureus ATCC BAA-1707 (MRSA); assay: MIC (broth microdilution or agar dilution, CLSI); settings: Staphylococcus aureus; S. aureus HAV#016, ATCC BAA-1707; MRSA; read-out: MIC
Procedure: as §1

S. aureus BAA 977 iErmA = assay: microbe, parasite or virus in culture; settings: Staphylococcus aureus, BAA-977 / MRSA
Procedure: as §1

[3] = Enterococcus faecalis, VRE, E. faecalis HAV#251, Clinical VRE
[4] = Klebsiella pneumoniae, K. pneumoniae HAV#041, Clinical, KPC
[5] = ATCC29213, S. aureus HAV#001, ATCC 29213, MP-549
[6] = ATCC49619, S. pneumoniae HAV#003, ATCC 49619
[7] = ATCC29212, E. faecalis HAV#005, ATCC 29212
[8] = ATCC19615, S. pyogenes HAV#004, ATCC 19615
[9] = Enterococcus faecium, VRE, E. faecium HAV#326, Clinical

SMILES	MIC (E. coli ΔTolC; E. coli HAV#038, ΔTolC) [µg/mL]	MIC [1, 3] [µg/mL]	MIC [1, 4] [µg/mL]	MIC (E. coli LptD; E. coli HAV#040, LptD) [µg/mL]	MIC (S. aureus ATCC 29213; [5]) [µg/mL]	MIC (E. coli ATCC 25922; E. coli HAV#006, ATCC 25922) [µg/mL]	MIC (S. pneumoniae ATCC 49619; [6]) [µg/mL]	MIC (E. faecalis ATCC 29212; [7]) [µg/mL]	MIC (S. pyogenes ATCC 19615; [8]) [µg/mL]	MIC (K. oxytoca Clinical; K. oxytoca HAV#450, Clinical) [µg/mL]	MIC (S. aureus MMX 3035 cErmA) [µg/mL]	MIC [1, 9] [µg/mL]	MIC [2] [µg/mL]	further results
CS(=O)(=O)c1ccc([C@@H](O)[C@@H](CO)NC(=O)C(Cl)Cl)cc1 [Thiamphenicol]	16 (≈ 44.9 µM)	8 (≈ 22.5 µM)	> 64	32 (≈ 89.8 µM)	32 (≈ 89.8 µM)	64 (≈ 180 µM)	2 (≈ 5.61 µM)	16 (≈ 44.9 µM)	4 (≈ 11.2 µM)	64 (≈ 180 µM)	32 (≈ 89.8 µM)			
CC[C@@H]1CCO[C@@H]2[C@H](CN[C@@H]2C(=O)N[C@H]([C@H](C)Cl)[C@H]2OC(SC)[C@H](O)[C@H](O)C2O)C1 (stereo partly drawn) [FSA-10-10-012]														MIC (E. coli ΔTolC; E. coli ΔTolC): 0.5 µg/mL (≈ 1.07 µM); MIC (S. aureus cErmA): 8 µg/mL (≈ 17.1 µM); MIC (P. aeruginosa ATCC 27853): > 128 µg/mL; MIC (E. faecium Clinical VRE): 8 µg/mL (≈ 17.1 µM); MIC (A. baumannii ATCC 19606): 32 µg/mL (≈ 68.5 µM); MIC (E. coli LptD; E. coli LptD): 2 µg/mL (≈ 4.28 µM); MIC (S. aureus ATCC 29213; ATCC29213, S. aureus ATCC 29213): 0.125 µg/mL (≈ 0.268 µM); MIC (E. coli ATCC 25922; E. coli ATCC 25922): 16 µg/mL (≈ 34.3 µM); MIC (S. pneumoniae ATCC 49619; ATCC49619, S. pneumoniae ATCC 49619): 0.125 µg/mL (≈ 0.268 µM); MIC (E. faecalis ATCC 29212; ATCC29212, E. faecalis ATCC 29212): 0.25 µg/mL (≈ 0.535 µM); MIC (S. pyogenes ATCC 19615; ATCC19615, S. pyogenes ATCC 19615): 0.125 µg/mL (≈ 0.268 µM); MIC (K. oxytoca Clinical; K. oxytoca Clinical): 16 µg/mL (≈ 34.3 µM)
CCC[C@@H]1C[C@@H](C(=O)N[C@@H]([C@H]2O[C@H](SC)[C@H](O)[C@@H](O)[C@H]2O)[C@@H](C)O)N(C)C1 [Lincomycin]	128 (≈ 315 µM)			64 (≈ 157 µM)	0.5 (≈ 1.23 µM)	> 256	1 (≈ 2.46 µM)	32 (≈ 78.7 µM)	0.5 (≈ 1.23 µM)	> 256		16 (≈ 39.4 µM)	0.25 (≈ 0.615 µM)	
CN(C)c1ccc(O)c2c1C[C@H]1C[C@H]3[C@H](N(C)C)C(O)=C(C(N)=O)C(=O)[C@@]3(O)C(O)=C1C2=O [Minocycline]	≤ 0.0125			0.25 (≈ 0.546 µM)	0.25 (≈ 0.546 µM)	0.5 (≈ 1.09 µM)		4 (≈ 8.74 µM)				0.125 (≈ 0.273 µM)	0.25 (≈ 0.546 µM)	MIC (S. aureus BAA 977 iErmA): 0.25 µg/mL (≈ 0.546 µM)
O=C(N[C@H](CO)[C@H](O)c1ccc([N+](=O)[O-])cc1)C(Cl)Cl [Chloramphenicol]	8 (≈ 24.8 µM)	4 (≈ 12.4 µM)	> 128	4 (≈ 12.4 µM)	8 (≈ 24.8 µM)	8 (≈ 24.8 µM)	4 (≈ 12.4 µM)	8 (≈ 24.8 µM)	4 (≈ 12.4 µM)	8 (≈ 24.8 µM)	16 (≈ 49.5 µM)			MIC ([1]; Enterococcus faecium, VRE, E. faecium HAV#318, VanA): 8 µg/mL (≈ 24.8 µM); MIC ([1]; Staphylococcus aureus, S. aureus HAV#216, Clinical, cfr): > 128 µg/mL; MIC ([1]; Staphylococcus aureus, S. aureus HAV#217, cfr): > 128 µg/mL; MIC ([1]; Staphylococcus epidermidis, S. epidermidis HAV# 275 Clinical, cfr): > 128 µg/mL; MIC ([1]; Staphylococcus epidermidis, S. epidermidis HAV# 276, cfr): > 128 µg/mL
